Data set [1] has as its target T1, Oxytocin receptor (Homo sapiens, UniProt P30559).
T1 sequence (P30559 whole entry): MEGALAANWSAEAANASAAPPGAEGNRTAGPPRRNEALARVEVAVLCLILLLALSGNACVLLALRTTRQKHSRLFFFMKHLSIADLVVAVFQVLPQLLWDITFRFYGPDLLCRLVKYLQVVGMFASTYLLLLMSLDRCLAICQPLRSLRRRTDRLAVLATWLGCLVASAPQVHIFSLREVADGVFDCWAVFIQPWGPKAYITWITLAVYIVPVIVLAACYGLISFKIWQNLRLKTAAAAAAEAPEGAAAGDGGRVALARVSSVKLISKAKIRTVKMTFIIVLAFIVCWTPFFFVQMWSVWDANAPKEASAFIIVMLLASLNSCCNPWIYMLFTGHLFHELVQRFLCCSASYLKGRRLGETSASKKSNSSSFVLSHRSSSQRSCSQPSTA
In words: Antagonist activity at human oxytocin receptor assessed as inhibition of oxytocin binding by FLIPR analysis.

The target of data set [2] is T1, Oxytocin receptor. In words: Displacement of [3H]oxytocin from human oxytocin receptor.
Data set [3] in a line: AUC in rat at 5 mg/kg, po. The class given is ADME, organism-based. Set-up: dose 5 mg/kg, route oral. To be noted: plasma.
Data set [4] in a line: Clearance in rat at 5 mg/kg. The class given is ADME, organism-based. Set-up: dose 5 mg/kg. To be noted: in vivo.
Data set [5] is described as follows: Oral bioavailability in rat at 5 mg/kg. Type of data set: ADME, organism-based. To be noted: in vivo.
Data set [6] can be described thus: AUC in dog at 0.6 mg/kg, po. Type of data set: ADME, organism-based, Canis lupus familiaris. Set-up: dose 0.6 mg/kg, route oral. The following applies: plasma.
Data set [7] can be described thus: Clearance in dog at 0.6 mg/kg. Type of data set: ADME, organism-based, Canis lupus familiaris. Also on record: dose 0.6 mg/kg. The following applies: in vivo.
A short description of data set [8]: Oral bioavailability in dog at 0.6 mg/kg. Type of data set: ADME, organism-based, Canis lupus familiaris. The following applies: in vivo.
For data set [9], the system named is Liver microsomes. The data set can be described thus: Intrinsic clearance in rat liver microsomes. The class given is ADME, Microsome.
The next data set concerns Liver. The data set can be described thus: Intrinsic clearance in dog liver microsomes. The class given is ADME, Canis lupus familiaris, Microsome. (Liver microsomes are a subcellular fraction often used to study metabolism.)
Data set [10] can be described thus: Intrinsic clearance in cynomolgus monkey liver microsomes. Type of data set: ADME, Macaca fascicularis, Microsome.
Data set [11] relates to Liver microsomes. The data set can be described thus: Intrinsic clearance in human liver microsomes. Type of data set: ADME, Microsome.
The nature of data set [12]: AUC in cynomolgus monkey at 2 mg/kg, po. The class given is ADME, organism-based, Macaca fascicularis. Also on record: dose 2 mg/kg, route oral. To be noted: plasma.
Data set [13] is described as follows: Clearance in cynomolgus monkey at 2 mg/kg. Type of data set: ADME, organism-based, Macaca fascicularis. Set-up: dose 2 mg/kg. The following applies: in vivo.
Data set [14] in a line: Oral bioavailability in cynomolgus monkey at 2 mg/kg. The class given is ADME, organism-based, Macaca fascicularis. To be noted: in vivo.

In the case of `CC(C)C[C@@H]1C(=O)N[C@H](C2Cc3ccccc3C2)C(=O)N1[C@@H](C(=O)NC(C)C)c1ccccc1Cl`, at Oxytocin receptor [1], the inhibition constant (Ki) (usually the dissociation constant of the complex between target and ligand, obtained from inhibition or displacement) is 3.98 nM.
On the same count and under the same terms, then `Cc1ccccc1[C@H](C(=O)NC(C)C)N1C(=O)[C@@H](C2Cc3ccccc3C2)NC(=O)[C@H]1CC(C)C`, with 7.94 nM; and `CCc1ccccc1[C@H](C(=O)NC(C)C)N1C(=O)[C@@H](C2Cc3ccccc3C2)NC(=O)[C@H]1CC(C)C`, with 15.8 nM.
The compound `CC[C@H](C)[C@@H]1C(=O)N[C@H](C2Cc3ccccc3C2)C(=O)N1[C@@H](C(=O)N(C)C)c1ccc(C)nc1C` had a Ki at Oxytocin receptor [2] of 0.0794 nM. In addition, the area under the curve (AUC) (in general, concentration integrated over time) in [3] was found to be 4720 ng·h/mL; in data set [6] it was 305 ng·h/mL; in data set [12], 17 ng·h/mL. In addition, the clearance (commonly a measure of how efficiently the substance is removed, as volume per time) in data set [4] amounted to 15 mL/min/kg; in [7], 14 mL/min/kg; in data set [13], 20 mL/min/kg. Besides, the bioavailability (commonly dose-corrected exposure relative to a reference, in per cent) worked out at 84% in [5], 44% in [8] and 1% in data set [14]. Further, the CLH in the data set with Liver microsomes [9] stood at 1 mL/min/g; with Liver it was 1 mL/min/g; in data set [10], 14 mL/min/g; in the data set with Liver microsomes [11], 7 mL/min/g.

Source of the values: ChEMBL document CHEMBL2034824, “Pyridyl-2,5-diketopiperazines as potent, selective, and orally bioavailable oxytocin antagonists: synthesis, pharmacokinetics, and in vivo potency” (J Med Chem, 2012).
